Data as given in US20090186874A1, “Carboxamide derivative and use thereof” (priority 2004, published 2009).
Where a name gives a salt, the structure may show the parent alone.

These compounds were tested against T1, substance P receptor (Homo sapiens, UniProt P25103) (assay: Radioligand receptor binding inhibitory activity (125I-BHSP binding to receptor from IM-9 cells)). Conditions: receptor from human lymphoblast cells (IM-9); radioligand 125I-BHSP; 25° C., 30 minutes.
T1 construct: The receptor was prepared from human lymphoblast cells (IM-9); endogenous in cells; host or cells: IM-9 human lymphoblast cells (membrane preparation)
T1 sequence (P25103 whole entry): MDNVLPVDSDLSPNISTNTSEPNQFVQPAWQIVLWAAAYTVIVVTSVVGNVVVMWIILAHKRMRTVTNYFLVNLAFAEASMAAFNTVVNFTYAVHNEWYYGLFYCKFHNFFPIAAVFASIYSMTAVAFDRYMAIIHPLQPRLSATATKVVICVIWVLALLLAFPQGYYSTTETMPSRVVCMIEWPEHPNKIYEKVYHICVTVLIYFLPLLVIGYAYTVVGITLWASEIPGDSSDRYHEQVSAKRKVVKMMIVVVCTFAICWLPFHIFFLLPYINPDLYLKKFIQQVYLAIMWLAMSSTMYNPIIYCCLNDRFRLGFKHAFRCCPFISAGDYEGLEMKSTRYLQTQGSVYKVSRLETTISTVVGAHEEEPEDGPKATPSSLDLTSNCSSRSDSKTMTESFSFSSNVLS
Experimental: Radioligand receptor binding inhibitory activity (Binding inhibitory activity using receptor from human lymphoblast cells (IM-9))
The residue was washed twice with 30 mL of the above-mentioned buffer, which was then preserved frozen (−80° C.) as a specimen of the receptor.
The specimen was suspended in a reaction buffer (50 mM Tri-HCl buffer (pH 7.4), 0.02% bovine serum albumin, 1 mM phenylmethylsulfonyl fluoride, 2 μg/mL chymostatin, 40 μg/mL bacitracin and 3 mM manganese chloride) to have protein in the concentration of 0.5 mg/mL of protein and 100 μl portion of the suspension was used in the reaction. […] The amount of nonspecific binding was determined by adding substance P at a final concentration of 2×10^−6 M.
After the reaction, using a cell harvester (290 PHD, Cambridge Technology, Inc, U.S.A.), filtration was carried out through a glass filter (GF/B, Whatman, U.S.A.), which was immersed in 0.1% polyethyleneimine for 24 hours and dried. After washing three times with 250 μL of 50 mM Tris-HCl buffer (pH 7.4) containing 0.02% bovine serum albumin, the radioactivity remaining on the filter was determined with a gamma counter.

Row | SMILES | IC50
1 | Cc1cc(F)ccc1[C@@H]1CNCC[C@H]1C(=O)N(C)Cc1cc(C(F)(F)F)cc(C(F)(F)F)c1 (relative stereo) [Example 12, (3R*,4R*)-N-[3,5-bis(trifluoromethyl)benzyl]-3-(4-fluoro-2-methylphenyl)-N-methylpiperidine-4-carboxamide hydrochloride] | 0.051 nM
2 | CC(=O)N1CCC(C(=O)N2CC[C@H](C(=O)N(C)Cc3cc(C(F)(F)F)cc(C(F)(F)F)c3)[C@H](c3ccccc3)C2)CC1 (relative stereo) [Example 30, (3R*,4S*)-1-[(1-acetylpiperidin-4-yl)carbonyl]-N-[3,5-bis(trifluoromethyl)benzyl]-N-methyl-3-phenylpiperidine-4-carboxamide] | 0.049 nM
3 | CC(=O)N1CCC(C(=O)N2CC[C@@H](C(=O)N(C)Cc3cc(C(F)(F)F)cc(C(F)(F)F)c3)[C@H](c3ccccc3)C2)CC1 (relative stereo) [Example 35, (3R*,4R*)-1-[(1-acetylpiperidin-4-yl)carbonyl]-N-[3,5-bis(trifluoromethyl)benzyl]-N-methyl-3-phenylpiperidine-4-carboxamide] | 0.098 nM
4 | COCC(=O)N1CC[C@@H](C(=O)N(C)Cc2cc(C(F)(F)F)cc(C(F)(F)F)c2)[C@H](c2ccc(F)cc2C)C1 (relative stereo) [Example 40, (3R*,4R*)-N-[3,5-bis(trifluoromethyl)benzyl]-3-(4-fluoro-2-methylphenyl)-1-(methoxyacetyl)-N-methylpiperidine-4-carboxamide] | 0.058 nM
5 | CCN(CC)CCC(=O)N1CC[C@@H](C(=O)N(C)Cc2cc(C(F)(F)F)cc(C(F)(F)F)c2)[C@H](c2ccc(F)cc2C)C1 (relative stereo) [Example 41, (3R*,4R*)-N-[3,5-bis(trifluoromethyl)benzyl]-1-(N,N-diethyl-β-alanyl)-3-(4-fluoro-2-methylphenyl)-N-methylpiperidine-4-carboxamide Hydrochloride] | 0.025 nM
6 | Cc1cc(F)ccc1[C@@H]1CN(C(=O)Cn2cnnn2)CC[C@H]1C(=O)N(C)Cc1cc(C(F)(F)F)cc(C(F)(F)F)c1 (relative stereo) [Example 42, (3R*,4R*)-N-[3,5-bis(trifluoromethyl)benzyl]-3-(4-fluoro-2-methylphenyl)-N-methyl-1-(1H-tetrazol-1-ylacetyl)piperidine-4-carboxamide] | 0.022 nM
7 | Cc1cc(F)ccc1[C@@H]1CN(C(=O)CC2NC(=O)NC2=O)CC[C@H]1C(=O)N(C)Cc1cc(C(F)(F)F)cc(C(F)(F)F)c1 (relative stereo) [Example 43, (3R*,4R*)-N-[3,5-bis(trifluoromethyl)benzyl]-1-[(2,5-dioxoimidazolidin-4-yl)acetyl]-3-(4-fluoro-2-methylphenyl)-N-methylpiperidine-4-carboxamide] | 0.064 nM
8 | CC(=O)N1CCC(C(=O)N2CC[C@H](C(=O)N(C)Cc3cc(C(F)(F)F)cc(C(F)(F)F)c3)[C@H](c3ccc(F)cc3)C2)CC1 (relative stereo) [Example 44, (3R*,4S*)-1-[(1-acetylpiperidin-4-yl)carbonyl]-N-[3,5-bis(trifluoromethyl)benzyl]-3-(4-fluorophenyl)-N-methylpiperidine-4-carboxamide] | 0.019 nM
9 | CC(=O)N1CCC(C(=O)N2CC[C@@H](C(=O)N(C)Cc3cc(C(F)(F)F)cc(C(F)(F)F)c3)[C@H](c3ccc(F)cc3)C2)CC1 (relative stereo) [Example 45, (3R*,4R*)-1-[(1-acetylpiperidin-4-yl)carbonyl]-N-[3,5-bis(trifluoromethyl)benzyl]-3-(4-fluorophenyl)-N-methylpiperidine-4-carboxamide] | 0.052 nM
10 | CC(=O)N1CCC(C(=O)N2CC[C@@H](C(=O)N(C)Cc3cc(C(F)(F)F)cc(C(F)(F)F)c3)[C@H](c3ccc(F)cc3C)C2)CC1 (relative stereo) [Example 46, (3R*,4R*)-1-[(1-acetylpiperidin-4-yl)carbonyl]-N-[3,5-bis(trifluoromethyl)benzyl]-3-(4-fluoro-2-methylphenyl)-N-methylpiperidine-4-carboxamide] | 0.047 nM
11 | Cc1cc(F)ccc1[C@@H]1CN(Cc2n[nH]c(=O)[nH]2)CC[C@H]1C(=O)N(C)Cc1cc(C(F)(F)F)cc(C(F)(F)F)c1 (relative stereo) [Example 54, (3R*,4R*)-N-[3,5-bis(trifluoromethyl)benzyl]-3-(4-fluoro-2-methylphenyl)-N-methyl-1-[(5-oxo-4,5-dihydro-1H-1,2,4-triazol-3-yl)methyl]piperidine-4-carboxamide] | 0.036 nM
12 | Cc1cc(F)ccc1[C@@H]1CN(C(=O)C(N)=O)CC[C@H]1C(=O)N(C)Cc1cc(C(F)(F)F)cc(C(F)(F)F)c1 (relative stereo) [Example 73, (3R*,4R*)-1-[amino(oxo)acetyl]-N-[3,5-bis(trifluoromethyl)benzyl]-3-(4-fluoro-2-methylphenyl)-N-methylpiperidine-4-carboxamide] | 0.052 nM
13 | Cc1cc(F)ccc1[C@@H]1CN(C(N)=O)CC[C@H]1C(=O)N(C)Cc1cc(C(F)(F)F)cc(C(F)(F)F)c1 (relative stereo) [Example 75, (3R*,4R*)-N^4-[3,5-bis(trifluoromethyl)benzyl]-3-(4-fluoro-2-methylphenyl)-N^4-methylpiperidine-1,4-dicarboxamide] | 0.035 nM
14 | CC(=O)NCC(=O)N1CC[C@@H](C(=O)N(C)Cc2cc(C(F)(F)F)cc(C(F)(F)F)c2)[C@H](c2ccc(F)cc2C)C1 (relative stereo) [Example 77, (3R*,4R*)-1-(N-acetylglycyl)-N-[3,5-bis(trifluoromethyl)benzyl]-3-(4-fluoro-2-methylphenyl)-N-methylpiperidine-4-carboxamide] | 0.043 nM
